{
  "source": "patent USRE49223E1",
  "about": "“Water-soluble fluorescence compound and method for preparing the same” (SNU R&DB FOUNDATION, priority 2011, dated 2022)",
  "key": {"[1]": {"system": "osteosarcoma cell line (U2OS)", "assay": "Western blotting test of cell extinction and damage markers (Caspase-3, PARP)", "assay_type": "cell-based", "details": "U2OS osteosarcoma cells; 10 μM (FIG. 15)", "procedure": "(§1) After a certain period of time, the degree of cell extinction is evaluated by examining the degree of expression of extinction and damage of a specific factor by using Western Blotting Test and the result is shown in FIG. 15."}, "[2]": {"assay": "Excitation and emission maxima by fluorescent spectrophotometer", "assay_type": "physicochemical", "details": "solvent: Ref. Ex. 1 methanol, 2 ethanol, 3 n-propanol, 4 iso-propanol, 5 n-butanol, 6 DMSO", "procedure": "UV absorption of the final fluorescent compound is determined by using a UV-VISIBLE spectrophotometer (Perkin Elmer, USA). Maximum values of excitation and emission are determined by using a fluorescent spectrophotometer (PTI, USA).\n(§2) Except for conducting the photochemical reaction in the presence of an organic solvent such as ethanol (Reference Example 2), n-propanol (Reference Example 3), iso-propanol (Reference Example 4), n- butanol (Reference Example 5) or DMSO (Reference Example 6), respectively, the fluorescent compound is obtained from trans-resveratrol in the same manner as Reference Example 1."}, "[3]": {"assay": "Fluorescence quantum yield (relative vs rhodamin 6G; absolute PL quantum yield system)", "assay_type": "physicochemical", "details": "solvent: Ref. Ex. 1 methanol, 2 ethanol, 3 n-propanol, 4 iso-propanol, 5 n-butanol, 6 DMSO; for Absolute quantum yield: absolute PL quantum yield measurement system; for Relative quantum yield: relative to rhodamin 6G", "procedure": "The absolute quantum yield is determined by using an absolute PL quantum yield measurement system (QE-1000, Otsuka Electronics, Japan). The relative quantum yield is determined by measuring the absorbance and emission intensity for each five concentrations for one solvent, determining the slope of said measured values, and comparing the slope with that of rhodamin 6G (the quantum yield of rhodamin 6G in ethanol is 0.95).\nas §2"}, "[4]": {"system": "breast epithelial cell line", "assay": "Cytomorphology test (cytotoxicity)", "assay_type": "cell-based", "details": "breast epithelial cells, cultured about 72 hours, microscopic examination (FIG. 13)", "procedure": "(§3) In the presence of a test compound or a comparative compound, a cell line is cultured for a certain period of time (about 72 hours) and then a cytotoxicity test is conducted. As a control group, a blank test is conducted in the same manner as above without adding any compound including the test compound and the comparative compound."}, "breast epithelial cell": {"system": "breast epithelial cell", "assay": "Trypan blue exclusion test (cytotoxicity)", "assay_type": "cell-based", "details": "both test concentrations 1 μM and 10 μM (FIG. 14)", "procedure": "as §3"}, "[5]": {"system": "breast epithelial cell line", "assay": "Western blotting test of cell extinction and damage markers (Caspase-3, PARP)", "assay_type": "cell-based", "details": "1, 10 and 100 μM (FIG. 15)", "procedure": "as §1"}, "[6]": {"assay": "Irradiation with natural light (photochemical stability)", "assay_type": "physicochemical", "details": "natural light for a long period of time", "from_the_text": "Meanwhile, prior art (PCT/EP01/06103) discloses using polydatin of formula 5 above as sunblock."}, "[7]": {"details": "in ethanol; reference standard; cited from earlier work"}, "[8]": {"details": "listed as Reference Example 2, in Ethanol solvent"}, "[9]": {"details": "listed as Reference Example 3, in n-Propanol solvent"}, "[10]": {"details": "listed as Reference Example 4, in iso-Propanol solvent"}, "[11]": {"details": "listed as Reference Example 5, in n-Butanol solvent"}, "[12]": {"details": "listed as Reference Example 6, in DMSO solvent"}},
  "data": [
    {"smiles": "COc1cc([C@@H]2c3cc4c(cc3[C@@H](O[C@@H]3O[C@@H]5CO[C@@H](C)O[C@H]5[C@H](O)[C@H]3O)[C@H]3COC(=O)[C@H]23)OCO4)cc(OC)c1O", "note": "[Etoposide]", "values": [
      {"measurement": "Western blot peaks resulting from cell extinction and damage", "setting": "[1]", "result": "significantly remarkable peak at 17 kDa, 19 kDa and 89 kDa positions"}
    ]},
    {"smiles": "CC(=O)/C=C/c1ccc2cc(O)cc(O)c2c1", "note": "[Reference Example 1, (E)-4-(6,8-dihydroxynaphthalen-2-yl) but-3-en-2-one]", "values": [
      {"measurement": "Emission", "setting": "[2]", "result": 547, "unit": "nm"},
      {"measurement": "Excitation", "setting": "[2]", "result": 390, "unit": "nm"},
      {"measurement": "Emission", "setting": "[2]; [8]", "result": 540, "unit": "nm"},
      {"measurement": "Emission", "setting": "[2]; [9]", "result": 534, "unit": "nm"},
      {"measurement": "Emission", "setting": "[2]; [10]", "result": 525, "unit": "nm"},
      {"measurement": "Emission", "setting": "[2]; [11]", "result": 536, "unit": "nm"},
      {"measurement": "Emission", "setting": "[2]; [12]", "result": 497, "unit": "nm"},
      {"measurement": "Absolute quantum yield", "setting": "[3]", "result": 0.058},
      {"measurement": "Absolute quantum yield", "setting": "[3]; [8]", "result": 0.145},
      {"measurement": "Absolute quantum yield", "setting": "[3]; [9]", "result": 0.212},
      {"measurement": "Absolute quantum yield", "setting": "[3]; [10]", "result": 0.311},
      {"measurement": "Absolute quantum yield", "setting": "[3]; [11]", "result": 0.254},
      {"measurement": "Absolute quantum yield", "setting": "[3]; [12]", "result": 0.439},
      {"measurement": "Relative quantum yield", "setting": "[3]", "result": 0.035},
      {"measurement": "Relative quantum yield", "setting": "[3]; [8]", "result": 0.103},
      {"measurement": "Relative quantum yield", "setting": "[3]; [9]", "result": 0.155},
      {"measurement": "Relative quantum yield", "setting": "[3]; [10]", "result": 0.247},
      {"measurement": "Relative quantum yield", "setting": "[3]; [11]", "result": 0.200},
      {"measurement": "Relative quantum yield", "setting": "[3]; [12]", "result": 0.523}
    ]},
    {"smiles": "CC(=O)/C=C/c1ccc2cc(O[C@@H]3O[C@H](CO)[C@@H](O)[C@H](O)[C@H]3O)cc(O)c2c1", "note": "[Resveratrone glucoside, (E)-4-(8-hydroxy-6-(((2S,3R,4S,5S,6R)-3,4,5-trihydroxy-6-(hydroxymethyl)tetrahydro-2H-pyran-2-yl)oxy)naphthalen-2-yl)but-3-en-2-one]", "values": [
      {"measurement": "cytomorphology and number change of the cultured cell vs control group", "setting": "[4]", "result": "no significant difference from the control group"},
      {"measurement": "number of cells alive vs control group", "setting": "breast epithelial cell", "result": "number of cells similar to that of the control group"},
      {"measurement": "Western blot peaks resulting from cell extinction and damage", "setting": "[5]", "result": "no peak at 17 kDa, 19 kDa and 89 kDa positions"}
    ]},
    {"smiles": "OC[C@H]1O[C@@H](Oc2cc(O)cc(/C=C/c3ccc(O)cc3)c2)[C@H](O)[C@@H](O)[C@@H]1O", "note": "[polydatin, resveratrol 3-O-β-glucoside]", "values": [
      {"measurement": "photochemical reaction product after irradiation", "setting": "[6]", "result": "any photochemical reaction product could not be found"}
    ]},
    {"smiles": "CCN=c1cc2oc3cc(NCC)c(C)cc3c(-c3ccccc3C(=O)OCC)c-2cc1C.Cl", "note": "[rhodamin 6G]", "values": [
      {"measurement": "quantum yield", "setting": "[7]", "result": 0.95}
    ]}
  ]
}
